# Assay: Exploratory stability study on Compound A drug substance (HPLC, water content, XRPD)
# Assay type: physicochemical
# Parameters: Water Content: unit: wt %
# Procedure: This is a reverse phase high performance liquid chromatography (HPLC) method devised to determine the assay and impurity profile of Compound A for release and stability testing. The method was qualified for its intended uses. Forced degradation studies were performed and used to qualify this method as stability indicating. The HPLC parameters are listed below in Table 6.
# An exploratory stability study on Compound A is on-going. The stability of Compound A will be studied at 5° C., 25° C./60% RH, and 40° C./75% RH with sampling points at 1, 2, 3, and 6 months. Samples will be analyzed using the stability indicating method TEST-05187 (high performance liquid chromatography (HPLC)).
# The critical quality attributes of the drug substance Compound A that will be monitored are appearance, purity, assay (wt %), impurities, water content, and x-ray powder diffraction (XRPD). The container and closure system for the stability study consists of double plastic (PE) bags placed inside an high-density polyethylene (HDPE) container.
# [1] = Initial Date (about 3 months after date of manufacture)
# [2] = Storage at 5° C. +/− 3° C., Initial Date + 1 Month
# [3] = Storage at 5° C. +/− 3° C., Initial Date + 2 Months
# [4] = Storage at 25° C. ± 2° C./60% RH ± 5%, Initial Date + 1 Month
# [5] = Storage at 25° C. ± 2° C./60% RH ± 5%, Initial Date + 2 Months
# [6] = Storage at 40° C. ± 2° C./75% RH ± 5%, Initial Date + 1 Month
# [7] = Storage at 40° C. ± 2° C./75% RH ± 5%, Initial Date + 2 Months
structure (smiles),measurement,setting,value
"N#Cc1ccc(O[C@H]2CC[C@H](NC(=O)c3ccc(N4CCC(CN5CCN(c6cc7c(cc6F)C(=O)N(C6CCC(=O)NC6=O)C7=O)CC5)CC4)nn3)CC2)cc1Cl (stereo partly shown) [Compound A, N-[(1r,4r)-4-(3-chloro-4-cyanophenoxy)cyclohexyl]-6-[4-({4-[2-(2,6-dioxopiperidin-3-yl)-6-fluoro-1,3-dioxo-2,3-dihydro-1H-isoindol-5-yl]piperazin-1-yl}methyl)piperidin-1-yl]pyridazine-3-carboxamide]",Appearance,At Date of Manufacture,Yellow
same,HPLC Assay (wt %),At Date of Manufacture,97.7 wt %
same,HPLC Impurities (%) RRT 0.50 (Intermediate 5),At Date of Manufacture,0.06%
same,HPLC Impurities (%) RRT 0.89,At Date of Manufacture,0.07%
same,HPLC Impurities (%) RRT 0.90,At Date of Manufacture,ND (ND = <_0.02%)
same,HPLC Impurities (%) RRT 0.92,At Date of Manufacture,0.07%
same,HPLC Impurities (%) RRT 0.94,At Date of Manufacture,ND (ND = <_0.02%)
same,HPLC Impurities (%) RRT 0.96 (Intermediate 2),At Date of Manufacture,0.16%
same,HPLC Impurities (%) RRT 1.02,At Date of Manufacture,0.39%
same,HPLC Impurities (%) RRT 1.04 (Intermediate 3),At Date of Manufacture,0.12%
same,HPLC Impurities (%) RRT 1.05 (Impurity 1),At Date of Manufacture,<QL (QL = 0.05%)
same,HPLC Impurities (%) RRT 1.07,At Date of Manufacture,0.19%
same,HPLC Impurities (%) RRT 1.23,At Date of Manufacture,0.06%
same,HPLC Impurities (%) RRT 1.32,At Date of Manufacture,ND (ND = <_0.02%)
same,HPLC Impurities (%) RRT 1.36 (Intermediate 9),At Date of Manufacture,0.05%
same,HPLC Impurities (%) RRT 1.39,At Date of Manufacture,0.67%
same,HPLC Impurities (%) RRT 1.54,At Date of Manufacture,ND (ND = <_0.02%)
same,HPLC Purity (%),At Date of Manufacture,98.0%
same,Total Impurities (%),At Date of Manufacture,2.0%
same,Water Content,At Date of Manufacture,0.27
same,Water Content (wt %),At Date of Manufacture,0.27 wt %
same,XRPD,At Date of Manufacture,Crystalline
same,Appearance,[1],Yellow
same,HPLC Assay (wt %),[1],99.5 wt %
same,HPLC Impurities (%) RRT 0.50 (Intermediate 5),[1],0.06%
same,HPLC Impurities (%) RRT 0.89,[1],0.08%
same,HPLC Impurities (%) RRT 0.90,[1],<QL (QL = 0.05%)
same,HPLC Impurities (%) RRT 0.92,[1],0.06%
same,HPLC Impurities (%) RRT 0.94,[1],ND (ND = <_0.02%)
same,HPLC Impurities (%) RRT 0.96 (Intermediate 2),[1],0.18%
same,HPLC Impurities (%) RRT 1.02,[1],0.38%
same,HPLC Impurities (%) RRT 1.04 (Intermediate 3),[1],0.11%
same,HPLC Impurities (%) RRT 1.05 (Impurity 1),[1],ND (ND = <_0.02%)
same,HPLC Impurities (%) RRT 1.07,[1],0.15%
same,HPLC Impurities (%) RRT 1.23,[1],0.06%
same,HPLC Impurities (%) RRT 1.32,[1],ND (ND = <_0.02%)
same,HPLC Impurities (%) RRT 1.36 (Intermediate 9),[1],ND (ND = <_0.02%)
same,HPLC Impurities (%) RRT 1.39,[1],0.45%
same,HPLC Impurities (%) RRT 1.54,[1],<QL (QL = 0.05%)
same,HPLC Purity (%),[1],98.4%
same,Total Impurities (%),[1],1.3%
same,Water Content,[1],0.86
same,Water Content (wt %),[1],0.86 wt %
same,XRPD,[1],Crystalline
same,Appearance,[2],Yellow
same,HPLC Assay (wt %),[2],97.4 wt %
same,HPLC Impurities (%) RRT 0.50 (Intermediate 5),[2],0.05%
same,HPLC Impurities (%) RRT 0.89,[2],0.07%
same,HPLC Impurities (%) RRT 0.90,[2],<QL (QL = 0.05%)
same,HPLC Impurities (%) RRT 0.92,[2],<QL (QL = 0.05%)
same,HPLC Impurities (%) RRT 0.94,[2],ND (ND = <_0.02%)
same,HPLC Impurities (%) RRT 0.96 (Intermediate 2),[2],0.18%
same,HPLC Impurities (%) RRT 1.02,[2],0.33%
same,HPLC Impurities (%) RRT 1.04 (Intermediate 3),[2],0.09%
same,HPLC Impurities (%) RRT 1.05 (Impurity 1),[2],ND (ND = <_0.02%)
same,HPLC Impurities (%) RRT 1.07,[2],0.15%
same,HPLC Impurities (%) RRT 1.23,[2],0.05%
same,HPLC Impurities (%) RRT 1.32,[2],ND (ND = <_0.02%)
same,HPLC Impurities (%) RRT 1.36 (Intermediate 9),[2],<QL (QL = 0.05%)
same,HPLC Impurities (%) RRT 1.39,[2],0.58%
same,HPLC Impurities (%) RRT 1.54,[2],<QL (QL = 0.05%)
same,HPLC Purity (%),[2],98.4%
same,Total Impurities (%),[2],1.5%
same,Water Content (wt %),[2],0.85 wt %
same,XRPD,[2],Crystalline
same,Appearance,[3],Yellow
same,HPLC Assay (wt %),[3],97.4 wt %
same,HPLC Impurities (%) RRT 0.50 (Intermediate 5),[3],0.05%
same,HPLC Impurities (%) RRT 0.89,[3],0.07%
same,HPLC Impurities (%) RRT 0.90,[3],<QL (QL = 0.05%)
same,HPLC Impurities (%) RRT 0.92,[3],0.06%
same,HPLC Impurities (%) RRT 0.94,[3],<QL (QL = 0.05%)
same,HPLC Impurities (%) RRT 0.96 (Intermediate 2),[3],0.17%
same,HPLC Impurities (%) RRT 1.02,[3],0.29%
same,HPLC Impurities (%) RRT 1.04 (Intermediate 3),[3],<QL (QL = 0.05%)
same,HPLC Impurities (%) RRT 1.05 (Impurity 1),[3],ND (ND = <_0.02%)
same,HPLC Impurities (%) RRT 1.07,[3],0.15%
same,HPLC Impurities (%) RRT 1.23,[3],<QL (QL = 0.05%)
same,HPLC Impurities (%) RRT 1.32,[3],0.05%
same,HPLC Impurities (%) RRT 1.36 (Intermediate 9),[3],<QL (QL = 0.05%)
same,HPLC Impurities (%) RRT 1.39,[3],0.61%
same,HPLC Impurities (%) RRT 1.54,[3],<QL (QL = 0.05%)
same,HPLC Purity (%),[3],98.4%
same,Total Impurities (%),[3],1.5%
same,Water Content (wt %),[3],1.0 wt %
same,XRPD,[3],Crystalline
same,Appearance,[4],Yellow
same,HPLC Assay (wt %),[4],97.3 wt %
same,HPLC Impurities (%) RRT 0.50 (Intermediate 5),[4],0.05%
same,HPLC Impurities (%) RRT 0.89,[4],0.07%
same,HPLC Impurities (%) RRT 0.90,[4],<QL (QL = 0.05%)
same,HPLC Impurities (%) RRT 0.92,[4],0.07%
same,HPLC Impurities (%) RRT 0.94,[4],ND (ND = <0.02%)
same,HPLC Impurities (%) RRT 0.96 (Intermediate 2),[4],0.18%
same,HPLC Impurities (%) RRT 1.02,[4],0.34%
same,HPLC Impurities (%) RRT 1.04 (Intermediate 3),[4],0.07%
same,HPLC Impurities (%) RRT 1.05 (Impurity 1),[4],ND (ND = <0.02%)
same,HPLC Impurities (%) RRT 1.07,[4],0.15%
same,HPLC Impurities (%) RRT 1.23,[4],0.05%
same,HPLC Impurities (%) RRT 1.32,[4],ND (ND = <0.02%)
same,HPLC Impurities (%) RRT 1.36 (Intermediate 9),[4],<QL (QL = 0.05%)
same,HPLC Impurities (%) RRT 1.39,[4],0.57%
same,HPLC Impurities (%) RRT 1.54,[4],<QL (QL = 0.05%)
same,HPLC Purity (%),[4],98.3%
same,Total Impurities (%),[4],1.6%
same,Water Content,[4],0.93
same,XRPD,[4],Crystalline
same,Appearance,[5],Yellow
same,HPLC Assay (wt %),[5],97.5 wt %
same,HPLC Impurities (%) RRT 0.50 (Intermediate 5),[5],0.05%
same,HPLC Impurities (%) RRT 0.89,[5],0.07%
same,HPLC Impurities (%) RRT 0.90,[5],<QL (QL = 0.05%)
same,HPLC Impurities (%) RRT 0.92,[5],0.06%
same,HPLC Impurities (%) RRT 0.94,[5],<QL (QL = 0.05%)
same,HPLC Impurities (%) RRT 0.96 (Intermediate 2),[5],0.17%
same,HPLC Impurities (%) RRT 1.02,[5],0.28%
same,HPLC Impurities (%) RRT 1.05 (Impurity 1),[5],ND (ND = <0.02%)
same,HPLC Impurities (%) RRT 1.07,[5],0.15%
same,HPLC Impurities (%) RRT 1.23,[5],0.05%
same,HPLC Impurities (%) RRT 1.32,[5],<QL (QL = 0.05%)
same,HPLC Impurities (%) RRT 1.36 (Intermediate 9),[5],ND (ND = <0.02%)
same,HPLC Impurities (%) RRT 1.39,[5],0.65%
same,HPLC Impurities (%) RRT 1.54,[5],<QL (QL = 0.05%)
same,HPLC Purity (%),[5],98.3%
same,Total Impurities (%),[5],1.5%
same,Water Content,[5],1.2
same,XRPD,[5],Crystalline
same,Appearance,[6],Yellow
same,HPLC Assay (wt %),[6],97.3 wt %
same,HPLC Impurities (%) RRT 0.50 (Intermediate 5),[6],0.05%
same,HPLC Impurities (%) RRT 0.89,[6],0.06%
same,HPLC Impurities (%) RRT 0.90,[6],<QL (QL = 0.05%)
same,HPLC Impurities (%) RRT 0.92,[6],0.07%
same,HPLC Impurities (%) RRT 0.94,[6],ND (ND = <0.02%)
same,HPLC Impurities (%) RRT 0.96 (Intermediate 2),[6],0.18%
same,HPLC Impurities (%) RRT 1.02,[6],0.34%
same,HPLC Impurities (%) RRT 1.04 (Intermediate 3),[6],0.08%
same,HPLC Impurities (%) RRT 1.05 (Impurity 1),[6],ND (ND = <0.02%)
same,HPLC Impurities (%) RRT 1.07,[6],0.14%
same,HPLC Impurities (%) RRT 1.23,[6],0.05%
same,HPLC Impurities (%) RRT 1.32,[6],ND (ND = <0.02%)
same,HPLC Impurities (%) RRT 1.36 (Intermediate 9),[6],<QL (QL = 0.05%)
same,HPLC Impurities (%) RRT 1.39,[6],0.58%
same,HPLC Impurities (%) RRT 1.54,[6],<QL (QL = 0.05%)
same,HPLC Purity (%),[6],98.3%
same,Total Impurities (%),[6],1.6%
same,Water Content,[6],1.0
same,XRPD,[6],Crystalline
same,Appearance,[7],Yellow
same,HPLC Assay (wt %),[7],97.2 wt %
same,HPLC Impurities (%) RRT 0.50 (Intermediate 5),[7],0.06%
same,HPLC Impurities (%) RRT 0.89,[7],0.06%
same,HPLC Impurities (%) RRT 0.90,[7],<QL (QL = 0.05%)
same,HPLC Impurities (%) RRT 0.92,[7],0.07%
same,HPLC Impurities (%) RRT 0.94,[7],<QL (QL = 0.05%)
same,HPLC Impurities (%) RRT 0.96 (Intermediate 2),[7],0.18%
same,HPLC Impurities (%) RRT 1.02,[7],0.28%
same,HPLC Impurities (%) RRT 1.04 (Intermediate 3),[7],<QL (QL = 0.05%)
same,HPLC Impurities (%) RRT 1.05 (Impurity 1),[7],ND (ND = <0.02%)
same,HPLC Impurities (%) RRT 1.07,[7],0.14%
same,HPLC Impurities (%) RRT 1.23,[7],0.06%
same,HPLC Impurities (%) RRT 1.32,[7],<QL (QL = 0.05%)
same,HPLC Impurities (%) RRT 1.36 (Intermediate 9),[7],ND (ND = <0.02%)
same,HPLC Impurities (%) RRT 1.39,[7],0.63%
same,HPLC Impurities (%) RRT 1.54,[7],<QL (QL = 0.05%)
same,HPLC Purity (%),[7],98.3%
same,Total Impurities (%),[7],1.5%
same,Water Content,[7],1.3
same,XRPD,[7],Crystalline
same,change in impurities and solid properties,after 2 months at all temperature stations,no increase in impurities nor change in solid properties
same,change in impurities and solid properties,after 5 months from the date of manufacture,no increase in impurities or change in solid properties
same,change in water content,"stability study, all temperature stations",small increase in the water content
